Data set [1] can be described thus: Absorbance/emission spectra in ethanol. Type of data set: physicochemical. The conditions noted are these: for Abs Max / Flourescence Ex Max / Fluorescence Em Max: 0.25 μM solutions in ethanol; for Extinction Coefficient: ethanol, approximate, maximum absorbance divided by nominal concentration. As to the method: Referring now to Tables 1 and 2, there are shown the absorbance and emission maxima of some example compounds of the present invention. Absorption and Fluorescence spectra were run using 0.25 μM solutions in ethanol on a Jasco, Inc. UV-530 UV/VIS spectrophotometer and FP 750 spectrofluorometer, respectively. Approximate extinction coefficients were estimated from the absorbance scans by dividing the maximum absorbance by the nominal concentration ([…]).

Data set [2] in a line: Solubility in Diluent C vs ethanol control. Type of data set: physicochemical. The settings on record: 1:50 dilution of 1 mM stock, 30 min room temperature, centrifuged, % of absorbance of 100% ethanol control. As to the method: Effects of the various combinations of asymmetrical and symmetrical side chains and methine bridges on the solubility of the compounds of the present invention were examined. Solubility in a commercially available probe diluent. Diluent C, was also tested. Triplicate 1:50 dilutions of stock 1 mM probe solutions were made in either ethanol or test diluent. After 30 minutes at room temperature solutions were centrifuged at 10,000×g for 10 minutes to remove any microagregates and 100 ul aliquots were transferred to 2.0 ml of ethanol for absorbance determinations. Based on the teachings of Leung et al. and on solubility specifications found on Sigma Certificates of Analysis for the commercial diluent (diluent supernatant absorbance at 30 minutes at least 60% of ethanol supernatant absorbance after 30 minutes), a preliminary specification at least 60% of the ethanol control was set as a surrogate for solubility sufficient to achieve cell labeling with S/N ratios greater than 100 and to minimize potential problems with brightness or reproducibility of labeling. Certain example compounds were soluble after 30 minutes in Diluent C.
Diluent C is a commercially available isotonic salt-free vehicle (Sigma-Aldrich Chemical Company) that is commonly used.

In another data set the test system is U937 cells. The data set can be described thus: Probe effects on cell viability and cell growth (Maximum Tolerated Concentration). Type of data set: cell-based. The conditions noted are these: for Maximum Tolerated Concentration (MTC): cultured U937 cells, 10^7 cells/ml, labeled 5 min in Diluent C, cultured 22-24 hours. How it is done: U937 cells were stained at a concentration of 10^7 cells/ml with increasing concentrations of probe by rapidly admixing 2× cells suspended in Diluent C with 2× probe in Diluent C. After 5 minutes at room temperature, the staining was stopped by the addition of cell culture medium. Cells were then washed thoroughly and cultured under standard conditions for 22-24 hours. Cell numbers were compared to those in a control culture treated with diluent alone.
Cells labeled with both dyes were also monitored daily for changes in mean fluorescence intensity (MFI), using a FACSAria flow cytometer with 488 nm excitation for PKH26 and 405 nm excitation for F305B. […] However, initial MFI's were high enough to detect at least 4 and possibly 5 or 6 cell doublings before the fluorescence intensity distribution of labeled cells began to overlap substantially with that of unstained cells. Color overlap of F305B into filter windows used for detection of 488 nm or 633 nm excited dyes was minimal. Since 405 nm excited dyes are less commonly available than 488 nm and 633 nm excited dyes of this nature were therefore deemed useful, despite their somewhat lesser signal:noise ratio, for providing increased flexibility in choice of spectral window to be used for monitoring membrane labeled cells and their proliferation.
Cells labeled with both dyes were also monitored daily for changes in mean fluorescence intensity (MFI), using a FACSCalibur flow cytometer with 488 nm excitation for PKH26 and 633 nm excitation for F308B.
Cells labeled either with PKH26 or with F319B were also monitored daily for changes in mean fluorescence intensity (MFI), using a FACSAria flow cytometer with 488 nm excitation for PKH26 and 785 nm excitation for F319B. […] Although the cells could only be followed for 4-5 doublings when labeled with PKH26, at least 6 doublings could be monitored using F319B before the fluorescence intensity distribution of labeled cells began to overlap substantially with that of unstained cells. Color overlap of F319B was minimal in filter windows used for detection of fluorescein, phycoerthyrin (PE), allophycocyanin (APC), and PE-Texas Red, PE-Cy5 or PerCP-Cy5.5 tandem conjugate dyes.

The mark [3] stands for this setting: U937 cells stained at each dye's MTC, monitored daily for 4 days (approximately 4 doublings).

SMILES strings stand for the structures.

As for `CCCCCCCCCCCCCCCCCCCCCC[N+]1=C(/C=C/C=C/C=C/C=C2/N(CCCCCCCCCCCCCC)c3ccc4ccccc4c3C2(C)C)C(C)(C)c2c1ccc1ccccc21.[I-]` [Compound F277A], in data set [1], the “Abs Max” value is 788 nm, the “Flourescence Ex Max” value is on record as 790 nm, the “Fluorescence Em Max” value is given as 814 nm and the “Extinction Coefficient” value is 205,400 M^−1cm^−1. For the same compound, the “Solubility >60% of EtOH Control @ 30 min” value in data set [2] is 95%.

On to `CCCCCCCCCCCCCCCCN1/C(=C\C=C\c2oc3ccc(C(C)(C)C)cc3[n+]2CCCCCCCCCCCCCCCC)Oc2ccc(C(C)(C)C)cc21.[I-]` [Compound F304B], for which, in data set [1], the “Abs Max” value came out at 493 nm, the “Flourescence Ex Max” value turned out to be 494 nm, the “Fluorescence Em Max” value was determined as 508 nm and the “Extinction Coefficient” value is on record as 160,000 M^−1cm^−1.

With `CCCCCCCCCCCCCCCCCCCCCC[n+]1c(/C=C2\Sc3ccccc3N2CCCCCCCCCCCCCC)sc2ccccc21.[I-]` [Compound F305B], in data set [1], the “Abs Max” value was 425 nm, the “Flourescence Ex Max” value was 420 nm, the “Fluorescence Em Max” value is listed as 461 nm and the “Extinction Coefficient” value was 81,200 M^−1cm^−1. Also, the “cell growth compared with PKH26-stained cells” value in the data set with U937 cells (setting [3]) was “comparable growth”. Further, the “Maximum Tolerated Concentration (MTC)” value in the data set on U937 cells was 20 µmol/L.

Consider `CCCCCCCCCCCCCCCCCCN1/C(=C\C=C\c2oc3ccc(C(C)(C)C)cc3[n+]2CCCCCCCCCCCCCCCCCC)Oc2ccc(C(C)(C)C)cc21.[I-]` [Compound F306B], for which, in data set [1], the “Abs Max” value amounted to 492 nm, the “Flourescence Ex Max” value is listed as 493 nm, the “Fluorescence Em Max” value was 508 nm and the “Extinction Coefficient” value is listed as 135,000 M^−1cm^−1.

Regarding `CCCCCCCCCCCCCCCCCCCCCC[N+]1=C(/C=C/C=C/C=C2/N(CCCCCCCCCCCCCC)c3ccc([N+](=O)[O-])cc3C2(C)C)C(C)(C)c2ccccc21.[I-]` [Compound F308B], in data set [1], the “Abs Max” value was 649 nm, the “Flourescence Ex Max” value was 493 nm, the “Fluorescence Em Max” value turned out to be 671 nm and the “Extinction Coefficient” value is 134,610 M^−1cm^−1. Further, the “cell growth compared with PKH26-stained cells” value in the data set on U937 cells (setting [3]) is “comparable growth”. The “Maximum Tolerated Concentration (MTC)” value with U937 cells stood at 15 µmol/L.

Consider `CCCCCCCCCCCCCCCCCCCCCC[N+]1=C(/C=C/C=C/C=C/C=C2/N(CCCCCCCCCCCCCC)c3ccc([N+](=O)[O-])cc3C2(C)C)C(C)(C)c2ccccc21.[I-]` [Compound F319B], for which, in data set [1], the “Abs Max” value is 743 nm, the “Fluorescence Em Max” value was found to be 776 nm and the “Extinction Coefficient” value is on record as 112,500 M^−1cm^−1. Besides, the “cell growth compared with PKH26-stained cells” value in the data set on U937 cells (U937 cells, F319B 12.5 micromol/L vs PKH26 12 micromol/L, monitored daily for 6 days) is recorded as “comparable growth”. Besides, in the data set on U937 cells, the “Maximum Tolerated Concentration (MTC)” value came to 20 µmol/L.

Values taken from patent publication US9597416B2, “Fluorescent membrane intercalating probes and methods for their use” (PHANOS TECHNOLOGIES, INC., priority 2005, dated 2017).
